These results are taken from ChEMBL document CHEMBL4715719, “Synthesis and biological properties of polyamine modified flavonoids as hepatocellular carcinoma inhibitors” (Eur J Med Chem, 2016).

Structures are written as SMILES. Activity calls are given as the source filed them. The calls are words filed in the database; no cut-off is given here.

For one data set, the system named is SMMC-7721. In words: Antiproliferative activity against human […] cells assessed as inhibition of cell proliferation at 100 uM measured after 48 hrs by MTT assay relative to control. The class given is functional.
Data set [1] deals with HepG2. Kind of data set: Antiproliferative activity against human HepG2 cells assessed as inhibition of cell proliferation at 100 uM measured after 48 hrs by MTT assay relative to control. The format is functional.
The nature of data set [2]: Cytotoxicity against human QSG7701 cells assessed as inhibition of cell proliferation at 100 uM measured after 48 hrs by MTT assay relative to control. The format is cell-based.
The subject of data set [3] is HepG2. In words: Antiinvasive activity against human HepG2 cells assessed as inhibition of cell invasion measured after 48 hrs by wound healing assay. The class given is functional, cell-based. The note with it: dose 50-70 µM.
Data set [4] deals with HepG2. In words: Induction of lysosomal impairment in human HepG2 cells after 48 hrs by Lyso-tracker Red staining based assay. The class given is functional, cell-based. The conditions noted are these: dose 50-70 µM.
Data set [5] has as its system HepG2. In words: Induction of apoptosis in human HepG2 cells assessed as activation of caspase 3 at 50 to 70 uM measured after 48 hrs by immunofluorescence assay. The conditions noted are these: dose 50-70 µM. The class given is functional, cell-based.
Data set [6] relates to HepG2. In words: Induction of apoptosis in human HepG2 cells assessed as activation of caspase 9 at 50 to 70 uM measured after 48 hrs by immunofluorescence assay. The format is functional, cell-based. The conditions noted are these: dose 50-70 µM.
Data set [7] concerns H22. In words: Antitumor activity against mouse H22 cells implanted in Kunming mouse assessed as reduction in tumor weight at 10 mg/kg, iv administered for 7 consecutive days starting from day 8 post inoculation and measured after 16 days (reference value: 2.15 +/- 0.51 g). The class given is functional. The note with it: time 8 day.
In data set [8] the test system is H22. In words: Potentiation of aspirin-induced antitumor activity against mouse H22 cells implanted in Kunming mouse assessed as tumor growth inhibition at 10 mg/kg, iv administered for 7 consecutive days starting from day 8 post inoculation cotreated with aspirin at 10 mg/kg and measured after 16 days (reference value: 36 %). The format is functional. The conditions noted are these: 192 h, time 8 day, read-out: TGI.

Data set [9] is described as follows: Toxicity in Kunming mouse implanted with mouse H22 cells assessed as change in mouse body weight at 10 mg/kg, iv administered for 7 consecutive days starting from day 8 post inoculation cotreated with DFMO at 200 mg/kg and measured after 16 days (reference value: 16.2 %). The format is organism-based. The note with it: in vivo, 192 h, time 8 day.
Data set [10] relates to H22. Kind of data set: Antimetastatic activity against mouse H22 cells implanted in Kunming mouse assessed as inhibition of metastasis at 10 mg/kg, iv administered for 7 consecutive days starting from day 11 post inoculation and measured after 18 days relative to control. The class given is functional. The conditions noted are these: 192 h, time 8 day.
A short description of data set [11]: Toxicity in Kunming mouse implanted with mouse H22 cells assessed as change in body weight at 10 mg/kg, iv administered for 7 consecutive days starting from day 11 post inoculation cotreated with aspirin at 10 mg/kg and measured after 18 days (reference value: -1.2 %). The class given is organism-based. The conditions noted are these: in vivo, 192 h, time 8 day.

Data set [12] has as its system Mus musculus. Kind of data set: Upregulation of phosphorylated JNK in Kunming mouse implanted with mouse H22 cells assessed as activation of p53 measured after 48 hrs by immunofluorescence analysis. The format is functional. The conditions noted are these: dose 10-30 µM.
Data set [13] deals with Mus musculus. Kind of data set: Upregulation of phosphorylated p38 in Kunming mouse implanted with mouse H22 cells assessed as activation of p53 measured after 48 hrs in presence of aspirin by immunofluorescence analysis. The format is functional. The conditions noted are these: dose 10-30 µM.
Data set [14] has as its system Mus musculus. Kind of data set: Upregulation of phosphorylated JNK in Kunming mouse implanted with mouse H22 cells assessed as activation of p53 measured after 48 hrs in presence of aspirin by immunofluorescence analysis. The class given is functional. The conditions noted are these: dose 10-30 µM.
Data set [15] concerns Mus musculus. In words: Downregulation of Bcl-2 in Kunming mouse implanted with mouse H22 cells at 10 to 30 uM after 48 hrs in presence of aspirin by immunofluorescence analysis. The conditions noted are these: dose 10-30 µM. The format is functional.
The test system of data set [16] is HepG2. In words: Antiproliferative activity against human HepG2 cells assessed as inhibition of cell proliferation measured after 48 hrs by MTT assay. The conditions noted are these: HepG2, 48 h. The class given is functional, cell-based.
A short description of data set [17]: Toxicity in Kunming mouse implanted with mouse H22 cells assessed mouse mortality at 10 mg/kg, iv administered for 7 consecutive days starting from day 8 post inoculation cotreated with DFMO at 200 mg/kg and measured after 16 days. The class given is organism-based. The note with it: in vivo, 192 h, time 8 day.

Consider `Cl.Cl.NCCCNCC(=O)NCc1cccc2c(=O)cc(-c3cccc4ccccc34)oc12`, for which the values for the inhibition at 100 µM in the data set with SMMC-7721 and in the data set with HepG2 [1] were 87.1% and 84.2%, respectively. The inhibition at 48 h, 100 µM in data set [2] was 41.8%. The inhibition result with HepG2 [3] was “Dose-dependent effect”. The Activity entry with HepG2 [4] is “Dose-dependent effect”; with H22 [7], 1.3 g; in data set [9], 16.7%; in [11], 4.3%; with Mus musculus [12] it was “Dose-dependent effect”; in data set [17], “Non-Toxic”. Besides, the result with HepG2 [5], with Mus musculus [13], in the data set on Mus musculus [14] and with Mus musculus [15] was Active. For the same molecule, in the data set with HepG2 [6], the outcome was inactive. For the same molecule, the inhibition in vivo at 10 mg/kg worked out at 69.2% in the data set with H22 [8] and 29.3% in the data set on H22 [10]. Also, the IC50 in the data set with HepG2 [16] stood at 65 µM.
